Test results taken from patent US20100087383A1, “INT[…] INHIBITOR AND USE THEREOF” (National University Corporation Nagoya University, priority 2006, published 2010).

What was measured:
[1] = tested on: Alzheimer's disease mouse model subjected to intraventricular injection of Aβ; assay: Novel object recognition test, oral administration, Alzheimer's disease mouse model subjected to intraventricular injection of Aβ25-35; type: in vivo; conditions: day 5 after Aβ25-35, ICR mice, FIG. 2
Description: (§1) An Alzheimer's disease mouse model was produced by injecting Aβ25-35 (the aggregation of which had been accelerated by 4 days of incubation at 37° C.) to mouse cerebral ventricle, following which it was used for the experimental system. ICR mice (body weight of 20-22 g (7 weeks old), purchased from Japan SLC Inc. (Shizuoka, Japan)) were divided into 4 groups (n=15). A physiological saline solution that is a solvent for Leu-Ile, Leu-Ile (1.5 μmol/Kg), or Leu-Ile (15 μmol/Kg) was administered to Alzheimer's disease mouse model groups. Then the groups were used for the experiment.
Moreover, an Leu-Ile 7.5 μmol/Kg administrated group and an Leu-Ile 75 μmol/Kg administrated group were subjected to oral administration of Leu-Ile (7.5 μmol/Kg) and Leu-Ile (75 μmol/Kg), respectively, immediately after administration of Aβ25-35. A novel object recognition test (Ennaceur et al., Behav Brain Res 80 9-25, 1996) was conducted for all groups 3 to 5 days after intraventricular administration of Aβ25-35 or a physiological saline solution. The test results on day 5 after administration of Aβ25-35 or a physiological saline solution were compared with the other test results on […] after administration (FIG. 2).

[2] = tested on: Alzheimer's disease mouse model subjected to intraventricular injection of Aβ; assay: Novel object recognition test, intraperitoneal administration, Alzheimer's disease mouse model subjected to intraventricular injection of Aβ25-35; type: in vivo; conditions: day 5 after Aβ25-35, ICR mice, FIG. 3
Description: as §1, with “cerebral ventricle and then” for “cerebral ventricle, following which it was”, “20-22 g,” for “20-22 g (7 weeks old),”, “into 5” for “into 4”, “solution was administered instead of Aβ25-35 to the cerebral ventricle of a control group. A physiological saline solution;” for “solution”
The Alzheimer's disease model control group, the Leu-Ile […] administrated group, the Leu-Ile 15 μmol/Kg administrated group, and an Leu-Ile 75 μmol/Kg administrated group were separately subjected to the experiment.
Specifically, the Leu-Ile 7.5 μmol/Kg administrated group, the Leu-Ile 15 μmol/Kg administrated group, and the Leu-Ile 75 μmol/Kg administrated group were subjected to intraperitoneal administration of Leu-Ile (7.5 μmol/Kg), Leu-Ile (15 μmol/Kg), and Leu-Ile (75 μmol/Kg), respectively, immediately after administration of Aβ25-35.
(§2) A novel object recognition test was conducted for each of the above groups 3 to 5 days after intraventricular administration of Aβ25-35 or a physiological saline solution. The test results on day 5 after administration of Aβ25-35 or a physiological saline solution were compared with the other test results on […] after administration (FIG. 3). Furthermore, Leu-Ile (15 μmol/Kg) was intraperitoneally administered to untreated mice and then the mice were subjected to a novel object recognition test similar to that conducted for the above test groups.

[3] = tested on: untreated mice; assay: Novel object recognition test in untreated mice; type: in vivo, mouse; conditions: Leu-Ile 15 μmol/Kg intraperitoneal; untreated mice (no Aβ25-35)
Description: as §2

## Leu-Ile
[1]; Leu-Ile 7.5 μmol/Kg oral
  recognition indices (novel object recognition test): decreased recognition indices were not confirmed
[1]; Leu-Ile 75 μmol/Kg oral
  recognition indices (novel object recognition test): decreased recognition indices were not confirmed
[2]; Leu-Ile 1.5 μmol/Kg intraperitoneal
  recognition indices (novel object recognition test): decreased recognition indices were not observed
[2]; Leu-Ile 15 μmol/Kg intraperitoneal
  recognition indices (novel object recognition test): decreased recognition indices were not observed
[2]; Leu-Ile 75 μmol/Kg intraperitoneal
  recognition indices (novel object recognition test): decreased recognition indices were not observed
[3]
  effects of improving memory (novel object recognition test): effects of improving memory were not observed
